For one assay, the target named is T1, human alpha 7-wt nAChR (Homo sapiens, UniProt P36544).
T1 construct: expressed in transfected cells
Kind of assay: Ca2+ flux imaging (FDSS) (Protocol B). The following applies: for EC50: potentiation of 100 μM choline, compounds 0.01 μM to 30 μM, read-out: a7-PAM-G_[33]_pEC50 pEC50 (converted); for Emax: read-out: a7-PAM-G_[33]_Eff_Curve_FI % Efficacy. The assay is classed as cell-based. The gist of the method: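 Fluo-4AM-loaded cells expressing human α7-wt nAChR, in HBSS with 10 mM HEPES, 5 mM CaCl2, 0.1% BSA, received compound (0.01–30 μM), typically 10 min before 100 μM choline, with calcium flux read in real time. Potentiation is relative to choline alone (100%); EC50 from sigmoidal curves.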
(In general: A change in cytosolic calcium serves as a functional read-out for many receptors and channels.)

Assay [1] addresses T2, human alpha 7-wt nAChR-expressing GH4C1 cells (Homo sapiens, UniProt P36544).
T2 construct: expressed in transfected cells
Kind of assay: Patch-clamp current recording (whole-cell voltage-clamp, PAM type classification). The following applies: 1 mM choline. Also noted: key: Type 0 compounds minimally change the effect size of the current elicited by 1 mM choline.; Type 1 compounds enhance the effect size of the current elicited by 1 mM choline but minimally alter the kinetics of the receptor.; Type 2 compounds enhance the effect size of the current elicited by 1 mM choline while reducing the rate and/or the extent of desensitization.; Type 3 compounds enhance the effect size of the current elicited by 1 mM choline. When tested at higher concentrations up to 10 μM they completely inhibit desensitization; Type 4 compounds allow for an initial desensitization of the receptor followed by a re-opening of the receptor during agonist application. The assay is classed as cell-based. On the procedure: The compounds of the present invention are classified as type 1-4, based on qualitative kinetic properties, as determined by whole-cell voltage-clamp recordings. This classification is based on the effect of an alpha 7 PAM compound, as described hereinbefore, on the signal elicited by an agonist application. In particular, said agonist is choline at a concentration of 1 mM. In a preferred experimental setting, said alpha 7 PAM compound and choline are simultaneously applied to the cell, as described hereinafter. Desensitization is defined as the closure of the receptor upon activation during the application of the agonist in whole-cell voltage-clamp electrophysiology measurements seen as the reduction of the […] current after initial activation by the agonist.
The definition of the PAM types 1-4 is described hereinafter: • Type 0 compounds minimally change the effect size of the current elicited by 1 mM choline. • Type 1 compounds enhance the effect size of the current elicited by 1 mM choline but minimally alter the kinetics of the receptor. In particular, the rate and the extent of desensitization and of deactivation of the receptor elicited by the agonist is not affected. The compound-modulated response to 1 mM choline, therefore, is close to a linear scaling of the 1 mM choline response in absence of the alpha 7 PAM compound. • Type 2 compounds enhance the effect size of the current elicited by 1 mM choline while reducing the rate and/or the extent of desensitization. Deactivation of the receptor is generally unaffected. • Type 3 compounds enhance the effect size of the current elicited by 1 mM choline. […] Deactivation of the receptor may be slowed down • Type 4 compounds allow for an initial desensitization of the receptor followed by a re-opening of the receptor during agonist application. At low-potency concentrations of the alpha 7 PAM compound, the agonist-induced activation, which is followed by desensitization, can still be separated from the compound-induced re-opening as an initial inward current-maximum. At higher potency concentrations of the alpha 7 PAM compound, the re-opening occurs faster than the closure due to desensitization so that the initial current-maximum disappears.
A compound was considered to have interesting PAM-like activity when the potentiation of the peak current was at least 200% compared to the control choline response (=100%). Such compounds are classified as belonging to a particular PAM type in the Experimental Part. Compounds not meeting the condition are not classified as belonging to a particular PAM-type.
The compounds also have a potentiating effect on the response to choline when measured by whole-cell patch clamp electrophysiology in GH4C1 cells stably over-expressing the human wild-type alpha 7 receptor.
Patch-clamp recording from mammalian cells has provided a powerful means of assessing the function of membrane-bound proteins thought to be subunits of ligand-gated ion channels. Activation of such proteins by endogenous or exogenous ligands cause opening of a pore associated with the receptor through which ions flow down their electrochemical gradient. In the case of the human alpha 7-wt nAChR-expressing GH4C1 recombinant cell line the preferential permeability to calcium of this receptor means that calcium flows into the cell upon activation by ACh, choline and other nicotinic ligands giving rise to a calcium current. Since this receptor rapidly desensitizes in the presence of agonist it is important that an application system is used which is capable of very rapid switching of solutions (<100 ms) to prevent partial or full desensitisation of receptor responses coincident with the time of agonist application. Consequently, a second convenient technique to assess the enhancement of nicotinic efficacy is a patch-clamp recording from human alpha 7-wt nAChR-expressing GH4C1 cells coupled with a rapid-application system. […]
(In general: The patch-clamp technique gives a direct electrical read-out from membranes.)

The mark [2] stands for this setting: efficacy of 100 μM choline defined as 100% in the absence of a PAM.

T2 sequence (P36544 23-502): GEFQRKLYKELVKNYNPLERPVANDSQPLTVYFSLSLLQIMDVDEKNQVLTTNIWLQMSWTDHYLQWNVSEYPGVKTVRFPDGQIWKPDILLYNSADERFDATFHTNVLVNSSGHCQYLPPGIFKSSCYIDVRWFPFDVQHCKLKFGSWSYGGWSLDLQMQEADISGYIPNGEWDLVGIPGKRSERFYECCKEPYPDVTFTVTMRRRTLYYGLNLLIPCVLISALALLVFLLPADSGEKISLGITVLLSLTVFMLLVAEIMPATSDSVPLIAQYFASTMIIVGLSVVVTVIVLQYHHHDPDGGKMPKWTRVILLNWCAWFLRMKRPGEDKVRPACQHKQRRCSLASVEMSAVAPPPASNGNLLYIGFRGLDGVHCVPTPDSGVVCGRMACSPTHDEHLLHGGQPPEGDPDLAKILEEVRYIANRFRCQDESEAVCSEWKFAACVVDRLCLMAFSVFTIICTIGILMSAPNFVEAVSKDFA
T1 sequence (P36544 23-502): as above

For `Cc1cc(F)ccc1C(=O)NCc1nc(N2C[C@@H](C)O[C@@H](C)C2)sc1-c1ccnc(C(F)(F)F)c1` [Compound 198, N-[[2-[(2R,6S)-2,6-dimethyl-4-morpholinyl]-5-[2-(trifluoromethyl)-4-pyridinyl]-4-thiazolyl]methyl]-4-fluoro-2-methyl-benzamide], the EC50 at human alpha 7-wt nAChR is 0.148 µM. The “PAM_Type PAM type” value in assay [1] stood at 1.
`Cc1cc(-c2sc(N3C[C@@H](C)O[C@@H](C)C3)nc2CNC(=O)CC(F)(F)F)cc(C)n1` [Compound 168, N-[[2-[(2R,6S)-2,6-dimethyl-4-morpholinyl]-5-(2,6-dimethyl-4-pyridinyl)-4-thiazolyl]methyl]-3,3,3-trifluoro-propanamide]: the Emax at human alpha 7-wt nAChR (setting [2]) came to 924%. Further, the EC50 on human alpha 7-wt nAChR is 0.0692 µM. Further, the “PAM_Type PAM type” value in assay [1] came out at 1.
The corresponding values for `Cc1cc(-c2sc(N3C[C@@H](C)O[C@@H](C)C3)nc2CNC(=O)c2ccccc2Cl)cc(C)n1` [Compound 5, 2-chloro-N-[[2-[(2R,6S)-2,6-dimethyl-4-morpholinyl]-5-(2,6-dimethyl-4-pyridinyl)-4-thiazolyl]methyl]-benzamide] are 568%, 0.135 µM and 2.
With `Cc1cc(-c2sc(N3C[C@@H](C)O[C@@H](C)C3)nc2CNC(=O)C2CC2)cc(C)n1` [Compound 48, N-[[2-[(2R,6S)-2,6-dimethyl-4-morpholinyl]-5-(2,6-dimethyl-4-pyridinyl)-4-thiazolyl]methyl]-cyclopropanecarboxamide], the EC50 on human alpha 7-wt nAChR was 0.661 µM. Moreover, the “PAM_Type PAM type” value in assay [1] amounted to 2.
Consider `Cc1cc(-c2sc(N3CCOC(C(F)(F)F)C3)nc2CNC(=O)c2ccc(F)cc2C)cc(C)n1` (stereo not drawn) [Compound 193, N-[[5-(2,6-dimethyl-4-pyridinyl)-2-[2-(trifluoromethyl)-4-morpholinyl]-4-thiazolyl]methyl]-4-fluoro-2-methyl-benzamide], for which the EC50 on human alpha 7-wt nAChR was 0.0209 µM. In assay [1], the “PAM_Type PAM type” value stood at 4.
Taken in the same sequence, the figures for `Cc1cc(-c2sc(N3C[C@@H](C)O[C@@H](C)C3)nc2CNC(=O)c2ccc(S(N)(=O)=O)cc2)cc(C)n1` [Compound 144, 4-(aminosulfonyl)-N-[[2-[(2R,6S)-2,6-dimethyl-4-morpholinyl]-5-(2,6-dimethyl-4-pyridinyl)-4-thiazolyl]methyl]-benzamide] were 2.14 µM and 2.
Turning to `Cc1cc(-c2sc(N3C[C@@H](C)O[C@@H](C)C3)nc2CNC(=O)C2CCC2)ccn1` [Compound 89, N-[[2-[(2R,6S)-2,6-dimethyl-4-morpholinyl]-5-(2-methyl-4-pyridinyl)-4-thiazolyl]methyl]-cyclobutanecarboxamide], the Emax on human alpha 7-wt nAChR (setting [2]) is 528%. In addition, the EC50 at human alpha 7-wt nAChR was 0.631 µM. Moreover, the “PAM_Type PAM type” value in assay [1] was found to be 2.
The corresponding values for `Cc1cc(-c2sc(N3C[C@@H](C)O[C@@H](C)C3)nc2CNC(=O)C2CC(=O)OC2(C)C)cc(C)n1` (stereo partly drawn) [Compound 154, N-[[2-[(2R,6S)-2,6-dimethyl-4-morpholinyl]-5-(2,6-dimethyl-4-pyridinyl)-4-thiazolyl]methyl]tetrahydro-2,2-dimethyl-5-oxo-3-furancarboxamide] are 791%, 0.871 µM and 1.
Take `Cc1cc(-c2sc(N3C[C@@H](C)O[C@@H](C)C3)nc2CNC(=O)C2CCC2)cc(C)n1` [Compound 2, N-[[2-[(2R,6S)-2,6-dimethyl-4-morpholinyl]-5-(2,6-dimethyl-4-pyridinyl)-4-thiazolyl]methyl]-cyclobutanecarboxamide]: the EC50 at human alpha 7-wt nAChR was 0.0676 µM. Also, the “PAM_Type PAM type” value in assay [1] was 2.
Take `Cc1cc(-c2sc(N3C[C@@H](C)O[C@@H](C)C3)nc2CNC(=O)c2ccc(OC(F)(F)F)cc2)cc(C)n1` [Compound 11, N-[[2-[(2R,6S)-2,6-dimethyl-4-morpholinyl]-5-(2,6-dimethyl-4-pyridinyl)-4-thiazolyl]methyl]-4-(trifluoromethoxy)-benzamide]: at human alpha 7-wt nAChR (setting [2]), the Emax was determined as 703%. For the same compound, the EC50 at human alpha 7-wt nAChR was 0.813 µM. Further, the “PAM_Type PAM type” value in assay [1] is recorded as 2.
The corresponding values for `Cc1cc(-c2sc(N3C[C@@H](C)O[C@@H](C)C3)nc2CNC(=O)c2cccc(C#N)c2)cc(C)n1` [Compound 12, 3-cyano-N-[[2-[(2R,6S)-2,6-dimethyl-4-morpholinyl]-5-(2,6-dimethyl-4-pyridinyl)-4-thiazolyl]methyl]-benzamide] are 595%, 0.55 µM and 2.
`Cc1cc(-c2sc(N3CC(C)OC(C(F)(F)F)C3)nc2CNC(=O)CC2CC2)cc(C)n1` (racemic) [Compound 202, N-[[5-(2,6-dimethyl-4-pyridinyl)-2-[2-methyl-6-(trifluoromethyl)-4-morpholinyl]-4-thiazolyl]methyl]-cyclopropaneacetamide]: the “a7-PAM-G_[33]_Eff_Curve_FI % Efficacy” value at human alpha 7-wt nAChR (setting [2]) is 735%. For the same compound, the EC50 on human alpha 7-wt nAChR was 0.0214 µM. For the same compound, the “PAM_Type PAM type” value in assay [1] came out at 2.
In the case of `Cc1cc(-c2sc(N3C[C@@H](C)O[C@@H](C)C3)nc2CNC(=O)c2ccc(C(F)(F)F)cc2)cc(C)n1` [Compound 23, N-[[2-[(2R,6S)-2,6-dimethyl-4-morpholinyl]-5-(2,6-dimethyl-4-pyridinyl)-4-thiazolyl]methyl]-4-(trifluoromethyl)-benzamide], the Emax on human alpha 7-wt nAChR (setting [2]) was determined as 594%. On human alpha 7-wt nAChR, the EC50 is 0.229 µM. In assay [1], the “PAM_Type PAM type” value came to 2.
Regarding `Cc1cc(-c2sc(N3C[C@@H](C)O[C@@H](C)C3)nc2CNC(=O)c2c(C)noc2C)cc(C)n1` [Compound 25, N-[[2-[(2R,6S)-2,6-dimethyl-4-morpholinyl]-5-(2,6-dimethyl-4-pyridinyl)-4-thiazolyl]methyl]-3,5-dimethyl-4-isoxazolecarboxamide], the Emax on human alpha 7-wt nAChR (setting [2]) was found to be 235%. On human alpha 7-wt nAChR, the EC50 is 0.813 µM. The “PAM_Type PAM type” value in assay [1] stood at 0.
As to `Cc1cc(-c2sc(N3CCOC(C)C3)nc2CNC(=O)c2conc2C)cc(C)n1` (single isomer, unassigned) [Compound 69, N-[[5-(2,6-dimethyl-4-pyridinyl)-2-[(2S*)-2-methyl-4-morpholinyl]-4-thiazolyl]methyl]-3-methyl-4-isoxazolecarboxamide], at human alpha 7-wt nAChR (setting [2]), the Emax came out at 645%. Moreover, the EC50 at human alpha 7-wt nAChR is 0.955 µM. The “PAM_Type PAM type” value in assay [1] worked out at 2.
The corresponding values for `Cc1cc(-c2sc(N3C[C@@H](C)O[C@@H](C)C3)nc2CNC(=O)c2nc(C)oc2C)cc(C)n1` [Compound 134, N-[[2-[(2R,6S)-2,6-dimethyl-4-morpholinyl]-5-(2,6-dimethyl-4-pyridinyl)-4-thiazolyl]methyl]-2,5-dimethyl-4-oxazolecarboxamide] are 464%, 2.4 µM and 0.
For the compound `Cc1cc(-c2sc(N3C[C@@H](C)O[C@@H](C)C3)nc2CNC(=O)c2oncc2C)cc(C)n1` [Compound 148, N-[[2-[(2R,6S)-2,6-dimethyl-4-morpholinyl]-5-(2,6-dimethyl-4-pyridinyl)-4-thiazolyl]methyl]-4-methyl-5-isoxazolecarboxamide], on human alpha 7-wt nAChR, the EC50 is 1.23 µM. Besides, in assay [1], the “PAM_Type PAM type” value was determined as 0.

These data come from US8637510B2, “Morpholinothiazoles as alpha 7 positive allosteric modulators” (Janssen Pharmaceutica NV, priority 2009, dated 2014).
